This passage reports IC50 results from patent publication US20060264460A1 (Wyeth, priority 2005, published 2006).

Where only a bound is given, the exact number is not on record here.

The target in the experiment is T1, human Cot/Tpl2 kinase (Homo sapiens, UniProt P41279).
T1 construct: human Cot/Tpl2 kinase construct encoding residues 30-398; 6His (N); made in house; host or cells: Sf9 insect cells, baculovirus system (BD Biosciences)
T1 sequence (P41279 30-398): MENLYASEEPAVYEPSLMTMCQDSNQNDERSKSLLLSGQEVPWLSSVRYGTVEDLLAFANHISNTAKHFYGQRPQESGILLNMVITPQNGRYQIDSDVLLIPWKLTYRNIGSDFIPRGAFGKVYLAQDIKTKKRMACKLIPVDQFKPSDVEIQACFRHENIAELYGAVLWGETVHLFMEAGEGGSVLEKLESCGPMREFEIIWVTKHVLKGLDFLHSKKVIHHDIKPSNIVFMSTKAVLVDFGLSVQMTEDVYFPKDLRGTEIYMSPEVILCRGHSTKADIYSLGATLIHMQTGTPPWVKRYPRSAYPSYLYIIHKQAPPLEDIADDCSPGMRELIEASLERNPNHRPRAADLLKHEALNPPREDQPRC
The experiment in a line: Tpl2/Cot kinase assay: GST-MEK1 phosphorylation detected by ELISA (DELFIA Eu). It is filed as biochemical. The following applies: 0.4 nM Tpl2, 35 nM GST-MEK1, 50 uM ATP, 1 h at 30° C. Here is the method: Sf9 cells expressing the kinase were lysed in 50 mM NaPhosphate pH=8; 300 mM NaCl; 5 mM imidazole; 0.1 mM EGTA; 25 mM beta-glycerophosphate; 1% TX-100, 1% glycerol; 6 mM beta-mercaptoethanol and protease inhibitors. The lysate was clarified by centrifugation and was loaded onto a Ni-Sepharose column. The column was washed with 50 mM NaPhosphate pH=8; 300 mM NaCl; 15 mM imidazole; 1% glycerol; and 6 mM beta-mercaptoethanol. His-Tpl2 was eluted with 50 mM NaPhosphate pH=8; 300 mM NaCl; 250 mM imidazole; 1% glycerol; and 6 mM beta-mercaptoethanol. The eluted protein was further purified by size exclusion chromatography. Fractions corresponding to monomeric Tpl2 were then used in the assay.
Tpl2/Cot activity was directly assayed using GST-MEK1 as a substrate. GST-MEK1 phosphorylation on serine residues 217 and 221 was detected by ELISA. 0.4 nM Tpl2 was incubated with 35 nM GST-MEK1 in a kinase reaction buffer containing 20 mM MOPS pH=7.2; 50 uM ATP; 20 mM MgCl2; 1 mM DTT; 25 mM β-glycerophosphate; 5 mM EGTA; and 1 mM sodium orthovanadate for 1 h at 30° C. The compounds of the inventions solubilized in 100% DMSO were pre-diluted in assay buffer so that the final concentration of DMSO in the reaction was 1%. The kinase reaction was carried out in 100 ul volume on 96 well plates. The kinase reaction was then stopped with the addition of 100 mM EDTA. […] After a 1 hour incubation at room temperature, the detection plate was washed 4 times with TBST (TBS+0.05% Tween 20) and then incubated for another hour at room temperature with anti phospho-MEK1 antibody (Cell Signaling) 1:1000 in 10 mM MOPS 7.5; 150 mM NaCl; 0.05% Tween 20; 0.1% Gelatin; 0.02% NaN3; and 1% BSA. The detection plate was washed again and incubated for 30 min with DELFIA Europium (Eu) labeled goat anti-rabbit IgG (Perkin-Elmer), 1:4000 in the same buffer used for the primary incubation. After a final wash, Eu detection solution was added to each well and the Eu signal was measured in a Wallac Victor^2 Multilabel Counter. IC50 calculations were performed using the XLfit software package (IDBS, Guildford, UK).
By IC50 is commonly meant the midpoint of a concentration-inhibition curve. The low end stands for greater potency in that assay, the high end for weaker potency in that assay. With `CC(C)(C)OC(=O)N1CCCC(CNc2ccc3ncc(C#N)c(Nc4ccc(F)c(Cl)c4)c3c2)C1` (stereo not shown) [Example 63, 3-{[4-(3-Chloro-4-fluoro-phenylamino)-3-cyano-quinolin-6-ylamino]-methyl}-piperidine-1-carboxylic acid tert-butyl ester], the half-maximal inhibitory concentration (IC50) was greater than 40000 nM.
`N#Cc1cnc2ccc(NCC3CCCNC3)cc2c1Nc1ccc(F)c(Cl)c1` (stereo not shown) [Example 64, 4-(3-Chloro-4-fluoro-phenylamino)-6-[(piperidin-3-ylmethyl)-amino]-quinoline-3-carbonitrile] displayed an IC50 greater than 40000 nM.
To `N#Cc1cnc2ccc(NCc3ccccc3)cc2c1Nc1ccc(N2CCOCC2)cc1` [Example 66, 6-(benzylamino)-4-(4-morpholinophenylamino)quinoline-3-carbonitrile] belongs greater than 40000 nM; to `CN(C)C(=O)c1cc(NCCN2CCOCC2)cc2c(Nc3cccc(Cl)c3)c(C#N)cnc12` [Example 68, 4-(3-chlorophenylamino)-3-cyano-N,N-dimethyl-6-(2-morpholinoethylamino)quinoline-8-carboxamide], 11000 nM.
To `N#Cc1cnc2c(Br)cc(NCCN3CCOCC3)cc2c1Nc1cccc(Cl)c1` [Example 69, 8-bromo-4-(3-chlorophenylamino)-6-(2-morpholinoethylamino)quinoline-3-carbonitrile] belongs 420 nM.
Next, `N#Cc1cnc2c(Br)cc(NCc3cccnc3)cc2c1Nc1cccc(Cl)c1` [Example 70, 8-bromo-4-(3-chlorophenylamino)-6-(pyridin-3-ylmethylamino)quinoline-3-carbonitrile]: 36 nM; `CN(C)C(=O)c1cc(NCc2cccnc2)cc2c(Nc3cccc(Cl)c3)c(C#N)cnc12` [Example 71, 4-(3-chlorophenylamino)-3-cyano-N,N-dimethyl-6-(pyridin-3-ylmethylamino)quinoline-8-carboxamide]: 400 nM; `N#Cc1cnc2ccc(NCc3cccnc3)cc2c1Nc1cccc(Cl)c1` [Example 72, 4-(3-chlorophenylamino)-6-(pyridin-3-ylmethylamino)quinoline-3-carbonitrile]: 24 nM.
The compound `N#Cc1cnc2c(NC(=O)c3ccccc3)cc(NCc3cccnc3)cc2c1Nc1cccc(Cl)c1` [Example 73, N-(4-(3-chlorophenylamino)-3-cyano-6-(pyridin-3-ylmethylamino)quinolin-8-yl)benzamide] displayed an IC50 greater than 40000 nM.
To `N#Cc1cnc2c(C#N)cc(NCc3cccnc3)cc2c1Nc1cccc(Cl)c1` [Example 74, 4-(3-chlorophenylamino)-6-(pyridin-3-ylmethylamino)quinoline-3,8-dicarbonitrile] belongs 140 nM.
For `N#Cc1cnc2c(NC=O)cc(NCc3cccnc3)cc2c1Nc1cccc(Cl)c1` [Example 75, N-(4-(3-chlorophenylamino)-3-cyano-6-(pyridin-3-ylmethylamino)quinolin-8-yl)formamide], the IC50 is 2600 nM.
Next, `N#Cc1cnc2c(Br)cc(NCc3cnc[nH]3)cc2c1Nc1ccc(F)c(Cl)c1` [Example 76, 6-((1H-imidazol-5-yl)methylamino)-8-bromo-4-(3-chloro-4-fluorophenylamino)quinoline-3-carbonitrile]: 6.8 nM.
Turning to `N#Cc1cnc2c(Br)cc(NCc3cccnc3)cc2c1Nc1ccc(F)c(Cl)c1` [Example 77, 8-bromo-4-(3-chloro-4-fluorophenylamino)-6-(pyridin-3-ylmethylamino) quinoline-3-carbonitrile], the IC50 was found to be 110 nM.
Next, `N#Cc1cnc2c(Br)cc(NCc3ccccn3)cc2c1Nc1ccc(F)c(Cl)c1` [Example 78, 8-bromo-4-(3-chloro-4-fluorophenylamino)-6-(pyridin-2-ylmethylamino)quinoline-3-carbonitrile]: 75 nM; `N#Cc1cnc2c(I)cc(NCc3cccnc3)cc2c1Nc1cccc(Cl)c1` [Example 79, 4-(3-chlorophenylamino)-8-iodo-6-(pyridin-3-ylmethylamino)quinoline-3-carbonitrile]: 570 nM; `N#Cc1cnc2c(C(=O)NCc3ccccc3)cc(NCc3cccnc3)cc2c1Nc1cccc(Cl)c1` [Example 80, N-benzyl-4-(3-chlorophenylamino)-3-cyano-6-(pyridin-3-ylmethylamino)quinoline-8-carboxamide]: greater than 40000 nM.
Next, `CC(C)C(=O)Nc1cc(NCc2cccnc2)cc2c(Nc3cccc(Cl)c3)c(C#N)cnc12` [Example 81, N-(4-(3-chlorophenylamino)-3-cyano-6-(pyridin-3-ylmethylamino)quinolin-8-yl)isobutyramide]: greater than 40000 nM; `CN(C)C(=O)c1cc(NCC2CCCCC2)cc2c(Nc3ccc(F)c(Cl)c3)c(C#N)cnc12` [Example 82, 4-(3-chloro-4-fluorophenylamino)-3-cyano-6-(cyclohexylmethylamino)-N,N-dimethylquinoline-8-carboxamide]: 3900 nM.
Compound `CN(C)C(=O)c1cc(NCc2nc3ccccc3n2C)cc2c(Nc3ccc(F)c(Cl)c3)c(C#N)cnc12` [Example 83, 4-(3-chloro-4-fluorophenylamino)-3-cyano-N,N-dimethyl-6-((1-methyl-1H-benzo[d]imidazol-2-yl)methylamino)quinoline-8-carboxamide] displayed an IC50 of 63 nM. This IC50 is about 62-fold lower than that of the compound before.
To `CN(C)C(=O)c1cc(NCc2ccco2)cc2c(Nc3ccc(F)c(Cl)c3)c(C#N)cnc12` [Example 84, 4-(3-chloro-4-fluorophenylamino)-3-cyano-6-(furan-2-ylmethylamino)-N,N-dimethylquinoline-8-carboxamide] belongs greater than 40000 nM; to `CN(C)C(=O)c1cc(NCc2cccc(C#N)c2)cc2c(Nc3ccc(F)c(Cl)c3)c(C#N)cnc12` [Example 85, 4-(3-chloro-4-fluorophenylamino)-3-cyano-6-(3-cyanobenzylamino)-N,N-dimethylquinoline-8-carboxamide], 670 nM.
`CN(C)C(=O)c1cc(NCc2ccc(C#N)cc2)cc2c(Nc3ccc(F)c(Cl)c3)c(C#N)cnc12` [Example 86, 4-(3-chloro-4-fluorophenylamino)-3-cyano-6-(4-cyanobenzylamino)-N,N-dimethylquinoline-8-carboxamide] had an IC50 of 1100 nM. This IC50 lies about 1.6-fold higher than the previous one.
Next, `CN(C)C(=O)c1cc(NCc2cnc[nH]2)cc2c(Nc3ccc(F)c(Cl)c3)c(C#N)cnc12` [Example 87, 6-((1H-imidazol-5-yl)methylamino)-4-(3-chloro-4-fluorophenylamino)-3-cyano-N,N-dimethylquinoline-8-carboxamide]: 130 nM; `CN(C)C(=O)c1cc(NCc2ccc(CO)o2)cc2c(Nc3ccc(F)c(Cl)c3)c(C#N)cnc12` [Example 88, 4-(3-chloro-4-fluorophenylamino)-3-cyano-6-((5-(hydroxymethyl)furan-2-yl)methylamino)-N,N-dimethylquinoline-8-carboxamide]: 250 nM.
On to `CN(C)C(=O)c1cc(NCc2ccn[nH]2)cc2c(Nc3ccc(F)c(Cl)c3)c(C#N)cnc12` [Example 89, 6-((1H-pyrazol-5-yl)methylamino)-4-(3-chloro-4-fluorophenylamino)-3-cyano-N,N-dimethylquinoline-8-carboxamide], for which the IC50 was 290 nM. This IC50 and that of the compound before are within 1.5-fold of each other.
